The source of these data is ChEMBL document CHEMBL3407440, “Monocarbonyl analogs of curcumin inhibit growth of antibiotic sensitive and resistant strains of Mycobacterium tuberculosis” (Eur J Med Chem, 2015).

This assay deals with Mycobacterium tuberculosis. In words: Antituberculosis activity against rifampicin-resistant Mycobacterium tuberculosis H37Rv assessed as growth inhibition after 72 hrs by liquid culture assay. It counts as functional, organism-based.

Usually IC50 stands for the concentration that inhibits the measured activity by half.

In the case of `CN1C/C(=C\c2ccccn2)C(=O)/C(=C/c2ccccn2)C1`, the half-inhibitory concentration (IC50) came to 7 µM. Consider `O=C1/C(=C/c2ccccc2F)CNC/C1=C\c1ccccc1F`, for which the 50% inhibitory concentration (IC50) stood at 20 µM.
